The values below come from US10071095B2, “1,2,4-triazolo [4,3-A] pyridine derivatives and their use for the treatment of neurological and psychiatric disorders” (JANSSEN PHARMACEUTICALS, INC., priority 2009, dated 2018).

The target in one assay is T1, human mGluR2 receptor (Homo sapiens, UniProt Q14416).
T1 construct: expressed in transfected cells; host or cells: CHO cells
T1 sequence (Q14416 19-872): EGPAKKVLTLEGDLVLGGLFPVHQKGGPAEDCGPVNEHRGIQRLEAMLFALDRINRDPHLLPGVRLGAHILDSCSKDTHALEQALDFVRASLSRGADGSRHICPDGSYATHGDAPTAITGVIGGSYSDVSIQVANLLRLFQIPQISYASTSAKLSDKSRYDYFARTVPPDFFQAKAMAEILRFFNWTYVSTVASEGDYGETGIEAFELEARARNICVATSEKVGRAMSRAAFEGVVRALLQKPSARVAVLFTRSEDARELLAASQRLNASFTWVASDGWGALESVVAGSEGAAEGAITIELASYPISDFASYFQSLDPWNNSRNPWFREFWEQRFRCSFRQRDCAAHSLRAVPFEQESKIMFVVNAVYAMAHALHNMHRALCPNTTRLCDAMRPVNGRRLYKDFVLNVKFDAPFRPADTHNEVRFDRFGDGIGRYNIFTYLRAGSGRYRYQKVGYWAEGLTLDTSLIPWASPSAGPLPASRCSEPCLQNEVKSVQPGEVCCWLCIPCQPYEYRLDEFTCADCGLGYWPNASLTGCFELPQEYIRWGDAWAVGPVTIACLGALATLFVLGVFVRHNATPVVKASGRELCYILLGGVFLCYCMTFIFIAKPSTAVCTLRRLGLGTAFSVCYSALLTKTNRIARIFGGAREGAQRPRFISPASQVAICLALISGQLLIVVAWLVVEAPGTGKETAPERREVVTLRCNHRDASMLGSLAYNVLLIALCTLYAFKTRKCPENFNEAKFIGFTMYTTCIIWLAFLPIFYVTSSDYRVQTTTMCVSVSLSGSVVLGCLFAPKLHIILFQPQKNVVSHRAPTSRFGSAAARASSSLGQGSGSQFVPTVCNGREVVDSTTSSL
Put plainly: [35S]GTPγS binding assay, positive allosteric modulation (GTPγS-PAM) in presence of EC20 glutamate. The following applies: in presence of glutamate at EC20; average pEC50 if more experiments; ‡ means tested once. Format: biochemical. On the procedure: [^35S]GTPγS Binding Assay
The [^35S]GTPγS binding assay is a functional membrane-based assay used to study G-protein coupled receptor (GPCR) function whereby incorporation of a non-hydrolysable form of GTP, [^35S]GTPγS (guanosine 5′-triphosphate, labelled with […] ^35S), is measured. The G-protein α subunit catalyzes the exchange of guanosine 5′-diphosphate (GDP) by guanosine triphosphate (GTP) and on activation of the GPCR by an agonist, [^35S]GTPγS, becomes incorporated and cannot be cleaved to continue the exchange cycle (Harper (1998) Current Protocols in Pharmacology 2.6.1-10, John Wiley & Sons, Inc.). […] Here we describe the use of the [^35S]GTPγS binding assay using membranes from cells transfected with the human mGluR2 receptor and adapted from Schaffhauser et al. ((2003) Molecular Pharmacology 4:798-810) for the detection of the positive allosteric modulation (PAM) properties of the compounds of this invention.
CHO-cells were cultured to pre-confluence and stimulated with 5 mM butyrate for 24 h, prior to washing in PBS, and then collected by scraping in homogenisation buffer (50 mM Tris-HCl buffer, pH 7.4, 4° C.). Cell lysates were homogenized briefly using an ultra-turrax homogenizer. The homogenate was centrifuged at 16,000 RPM (Sorvall RC-5C plus rotor SS-34) for 10 minutes and the supernatant discarded. The pellet was resuspended in 5 mM Tris-HCl, pH 7.4 and centrifuged again (18,000 RPM, 20 min, 4° C.). The final pellet was resuspended in 50 mM Tris-HCl, pH 7.4 and stored at −80° C. in appropriate aliquots before use. Protein concentration was determined by the Bradford method (Bio-Rad, USA) with bovine serum albumin as standard.
Measurement of mGluR2 positive allosteric modulatory activity of test compounds was performed as follows. Test compounds and glutamate were diluted in assay buffer containing 10 mM HEPES acid, 10 mM HEPES salt, pH 7.4, 100 mM NaCl, 3 mM MgCl2 and 10 μM GDP. Human mGlu2 receptor-containing membranes were thawed on ice and diluted in assay buffer supplemented with 14 μg/ml saponin. Membranes were pre-incubated with compound alone or together with a predefined (˜EC20) concentration of glutamate (PAM assay) for 30 min at 30° C. After addition of [^35S]GTPγS (f.c. 0.1 nM) microplates were shaken briefly and further incubated to allow [^35S]GTPγS incorporation on activation (30 minutes, 30° C.). Final assay mixtures contained 7 μg of membrane protein in 10 mM HEPES acid, 10 mM HEPES salt, pH 7.4, 100 mM NaCl, 3 mM MgCl2, 10 µM GDP and 10 μg/ml saponin. Total reaction volume was 200 μl. Reactions were terminated by rapid filtration through Unifilter-96 GF/B filter plates (Packard, Meriden, Conn.) using a 96-well Packard filtermate harvester. Filters were washed 6 times with ice-cold 10 mM NaH2PO4/10 mM Na2HPO4, pH 7.4. Filters were then air-dried, and 40 μl of liquid scintillation cocktail (Microscint-O) was added to each well. Membrane-bound radioactivity was counted in a Microplate Scintillation and Luminescence Counter from Packard.
The concentration-response curves of representative compounds of the present invention-obtained in the presence of EC20 of mGluR2 agonist glutamate to determine positive allosteric modulation (PAM)—were generated using the Lexis software interface (developed at J&J).
In the case of `N#Cc1c(N2CCC(c3ccccc3)CC2)ccn2c(CC(F)(F)F)nnc12` [compound 20], the “GTPγS - hR2 PAM pEC50” value turned out to be 7.25.
On the same count and under the same terms, the result for `COc1cccc(F)c1C1CCN(c2ccn3c(CC4CC4)nnc3c2Cl)CC1` [compound 55] reads 8.22; that for `Clc1c(N2CCC(c3ccccc3)C2)ccn2c(CC3CC3)nnc12` (centres unmarked) [compound 173], 6.32‡.
In the case of `CC(C)(C)c1nnc2c(C#N)c(N3CCC(c4ccccc4)CC3)ccn12` [compound 35], the “GTPγS - hR2 PAM pEC50” value amounted to 5.91.
On the same count and under the same terms, the figure for `Fc1cnc(N2CCN(c3ccn4c(CC5CC5)nnc4c3C(F)(F)F)CC2)c(F)c1` [compound 359] is 7‡; for `Clc1c(N2CCC3(CC2)COc2cccnc23)ccn2c(CC3CC3)nnc12` [compound 161] it is 5.68‡.
On the same count and under the same terms, the figure for `FC(F)(F)c1c(N2CCC(F)(c3ccccc3)CC2)ccn2c(CC3CC3)nnc12` [compound 2, 3-Cyclopropylmethyl-7-(4-fluoro-4-phenyl-1-piperidinyl)-8-(trifluoromethyl)-1,2,4-triazolo[4,3-a]pyridine] is 7.41; for `FC(F)(F)c1c(N2CCC(c3ccccc3Cl)CC2)ccn2c(CC3CC3)nnc12` [compound 287] it is 7.87‡; for `CCCc1nnc2c(Cl)c(N3CCC4(CC3)OCc3c(F)cccc34)ccn12` [compound 106] it is 6.45.
Take `COc1cccnc1N1CCN(c2ccn3c(CC4CC4)nnc3c2C(F)(F)F)CC1` [compound 92]: the “GTPγS - hR2 PAM pEC50” value was 6.87.
Same read-out and setting: the result for `CCOCc1nnc2c(Cl)c(N3CCN(c4ccccc4)C(C)(C)C3)ccn12` [compound 103] reads 5.63‡; that for `C[C@H]1CN(c2ccn3c(CC(F)(F)F)nnc3c2Cl)CCN1c1cc(F)cc(F)c1` [compound 191], 6.76.
For `N#Cc1c(N2CCC(c3ccccc3)CC2)ccn2c(COCc3ccccc3)nnc12` [compound 32], the “GTPγS - hR2 PAM pEC50” value was 7.03.
Consider `CC1(C)CN(c2ccn3c(CC4CC4)nnc3c2C(F)(F)F)CCN1c1cc(F)cc(F)c1` [compound 233], for which the “GTPγS - hR2 PAM pEC50” value was found to be 7.23.
Still for that read-out and setting: the result for `N#Cc1c(N2CCC(F)(c3ccccc3)CC2)ccn2c(CC3CC3)nnc12` [compound 40] reads 6.67.
In the case of `FC(F)(F)c1c(N2C[C@@H]3[C@H](C2)[C@H]3c2ccccc2)ccn2c(CC3CC3)nnc12` [compound 266], the “GTPγS - hR2 PAM pEC50” value is 7.88‡.
The same measure, in the same setting: the figure for `Clc1c(N2CCC(Oc3cccnc3)CC2)ccn2c(CC3CC3)nnc12` [compound 170] is 5.84‡; for `Cc1c(N2CCC3(CC2)OC(C)(C)c2ccccc23)ccn2c(CC3CC3)nnc12` [compound 154] it is 7.13; for `CCc1nnc2c(C)c(N3CC4C(C3)C4c3ccccc3)ccn12` (racemic) [compound 335] it is 6.42‡.
The same measure, in the same setting: the result for `N#Cc1c(N2CCN(C3CCC(C(F)(F)F)CC3)CC2)ccn2c(CC(F)(F)F)nnc12` (centres unmarked) [compound 58] reads 6.23; that for `Cl.Fc1cccc2c1COC21CCN(c2ccn3c(CC4CC4)nnc3c2Cl)CC1` [compound 108], 6.91‡; that for `Fc1ccc(CN2CCN(c3ccn4c(CC5CC5)nnc4c3Cl)CC2)c(F)c1` [compound 215], 5.6‡.
The same measure, in the same setting: the result for `CCOCc1nnc2c(Cl)c(N3CCC(c4cc(F)ccc4OC)CC3)ccn12` [compound 83] reads 7.64.
Regarding `FC(F)(F)Cc1nnc2c(C(F)(F)F)c(N3CCC(c4ccccc4)CC3)ccn12` [compound 38], the “GTPγS - hR2 PAM pEC50” value turned out to be 7.74.
On the same count and under the same terms, the figure for `FC(F)(F)c1c(N2CCC(F)(c3ccccc3)CC2)ccn2c(COCC3CC3)nnc12` [compound 80] is 7.27.
On the same count and under the same terms, the figure for `Fc1cccc2c1COC21CCN(c2ccn3c(CC4CC4)nnc3c2C(F)(F)F)CC1` [compound 109] is 7.29; for `FC(F)(F)c1c(N2CCC(Oc3ccccn3)CC2)ccn2c(CCC3CC3)nnc12` [compound 129] it is 6.92; for `CC(C)OCc1nnc2c(C(F)(F)F)c(N3CCC(c4ccccc4)CC3)ccn12` [compound 122] it is 7.3.
The same measure, in the same setting: the result for `CCc1nnc2c(Cl)c(N3CCC(c4ccccc4)CC3)ccn12` [compound 25] reads 6.42.
Turning to `FC(F)(F)c1c(N2CCC3(CC2)COc2ccccc2O3)ccn2c(CC3CC3)nnc12` [compound 79], the “GTPγS - hR2 PAM pEC50” value stood at 7.28.
`COc1ccc(F)cc1C1CCN(c2ccn3c(CC(F)(F)F)nnc3c2Cl)CC1` [compound 61]: the “GTPγS - hR2 PAM pEC50” value came to 7.98.
Same read-out and setting: the figure for `Cc1c(N2CCC(c3ccccc3)(C(F)(F)F)CC2)ccn2c(CC3CC3)nnc12` [compound 187] is 6.19; for `CCCc1nnc2c(C#N)c(N3CCC(c4ccccc4)CC3)ccn12` [compound 28] it is 6.53.
Still for that read-out and setting: the result for `FC(F)(F)c1c(N2CCc3ccccc3C2)ccn2c(CC3CC3)nnc12` [compound 118] reads 6.83; that for `CCc1nnc2c(C#N)c(N3CCC(c4ccccc4)CC3)ccn12` [compound 10, 3-ethyl-7-(4-phenyl-1-piperidinyl)-1,2,4-triazolo[4,3-a]pyridine-8-carbonitrile], 6.16.
The same measure, in the same setting: the result for `FC(F)(F)c1c(N2CCC3(CC2)OCc2ccccc23)ccn2c(CC3CC3)nnc12` [compound 77] reads 7.68‡; that for `FC(F)(F)c1c(N2CCN(c3ncccn3)CC2)ccn2c(CC3CC3)nnc12` [compound 64], 6.65.
For `CCCc1nnc2c(C(F)(F)F)c(N3CCC4(CC3)OCc3c(F)cccc34)ccn12` [compound 110], the “GTPγS - hR2 PAM pEC50” value is 6.86.
Regarding `CC1CN(c2ccn3c(CC4CC4)nnc3c2C(F)(F)F)CCC1c1ccccc1` (single isomer, unassigned) [compound 212], the “GTPγS - hR2 PAM pEC50” value turned out to be 8.08.
Consider `CC(C)OCc1nnc2c(Cl)c(N3CCC(F)(c4ccccc4)CC3)ccn12` [compound 127], for which the “GTPγS - hR2 PAM pEC50” value is recorded as 6.42.
Still for that read-out and setting: the figure for `FC1(F)CCN(C2CCN(c3ccn4c(CC5CC5)nnc4c3C(F)(F)F)CC2)CC1` [compound 238] is 6.08‡; for `CCOCc1nnc2c(Cl)c(N3CCC(c4c(OC)ccc(F)c4F)CC3)ccn12` [compound 84] it is 7.86; for `CCc1nnc2c(C(F)(F)F)c(N3CCC4(CC3)COc3ccccc34)ccn12` [compound 89] it is 6.46‡.
With `FC(F)(F)C(c1ccccc1)N1CCN(c2ccn3c(CC4CC4)nnc3c2Cl)CC1` (centres unmarked) [compound 163], the “GTPγS - hR2 PAM pEC50” value is given as 6.97‡.
On the same count and under the same terms, the result for `COc1c(F)cccc1C1CCN(c2ccn3c(CC(F)(F)F)nnc3c2C#N)CC1` [compound 27] reads 7.51; that for `Fc1cc(CN2CCN(c3ccn4c(CC5CC5)nnc4c3Cl)CC2)cc(C(F)(F)F)c1` [compound 280], 5.95‡.

Still in this assay, the particulars now being: in presence of glutamate at EC20; average pEC50 if more experiments; ‡ means tested once; read-out: GTPγS - hR2 PAM pEC50 (converted).
Turning to `N#Cc1c(N2CCC(c3ccccc3)CC2)ccn2c(CN3CCC(c4ccccc4)CC3)nnc12` [compound 12, 7-(4-phenyl-1-piperidinyl)-3-[(4-phenyl-1-piperidinyl)methyl]-1,2,4triazolo[4,3-a]pyridine-8-carbonitrile], the EC50 is 0.0468 µM.
